As a reminder, the IC50 is the point on the concentration scale where inhibition reaches its midpoint.

Molecules are shown by their SMILES.

For one data set, the system named is tubulin polymerization. More on the design: method as in PMID 40308265. As to conditions: read-out: IC50 inhibition of tubulin polymerization; cited from earlier work.
The nature of data set [1]: In vitro cytotoxicity against normal cell line WI 38. The format is cell-based. The settings on record: human, WI-38 normal cell line; ± SEM. An excerpt: Detailed results of cytotoxicity of compounds 4b and 4d against normal cell
Blank CC Sample No. 4b/WI38 sample no. 4d/WI38
conc. viability conc. viability

In data set [2] the test system is non-small-cell lung cancer A459. More on the design: method as in PMID 27555286. The settings on record: A459 ref 30; cited from earlier work.
The test system of data set [3] is human melanoma LOX IMVI cancer cell line. On the set-up: method as in PMID 39406816. As to conditions: LOX IMVI ref 33; cited from earlier work.
Data set [4] deals with renal cancer cell line UO-31. On the set-up: method as in PMID 29547830. As to conditions: UO-31 ref 31; cited from earlier work.
For the next data set, the system named is OVCAR-3. On the set-up: method as in PMID 39338317. As to conditions: OVCAR-3 ref 14; cited from earlier work.
A further data set deals with CCRF-CEM. On the set-up: method as in PMID 39338317. As to conditions: CCRF-CEM ref 14; cited from earlier work.
The next data set has as its system MDA-MB-468. More on the design: method as in PMID 39338317. As to conditions: MDA-MB-468 ref 14; cited from earlier work.
Another data set relates to RPMI-8226. More on the design: method as in PMID 39338317. As to conditions: RPMI-8226 ref 14; cited from earlier work.
Another data set relates to leukemia subpanel. More on the design: method as in PMID 24090914. The settings on record: leukemia subpanel ref 26; cited from earlier work.
In the next data set the test system is MDAMB-231. On the set-up: method as in PMID 40308265. The settings on record: MDAMB-231 ref 32; cited from earlier work.
A further data set relates to MCF-7. On the set-up: method as in PMID 40308265. The settings on record: MCF-7 ref 32; cited from earlier work.
The test system of another data set is PC-3. More on the design: method as in PMID 40308265. As to conditions: PC-3 ref 32; cited from earlier work.
Another data set has as its system HCT-116. More on the design: method as in PMID 40308265. As to conditions: HCT-116 ref 32; cited from earlier work.

Take `COc1ccc(/C=C\c2cc(OC)c(OC)c(OC)c2)cc1O` [CA-4]: the IC50 in the data set with tubulin polymerization was 8.33 µM.
On to `COc1cccc2c1C(=O)c1c(O)c3c(c(O)c1C2=O)C[C@@](O)(C(=O)CO)C[C@@H]3O[C@H]1C[C@H](N)[C@H](O)[C@H](C)O1` [Doxorubicin, doxorubicin, reference compound], for which the IC50 in data set [1] worked out at 19.8 ± 0.68 µM.
As for `O=C(CN1CCN(c2cc3c(cc2F)c(=O)c(C(=O)O)cn3C2CC2)CC1)Nc1ccc(Cl)cc1` [III], in data set [2], the IC50 was 14.8 µM.
Consider `O=C(O)c1cn(C2CC2)c2cc(N3CCN(C(=O)CCCN4C(=O)S/C(=C\c5ccc(F)cc5)C4=O)CC3)c(F)cc2c1=O` [IIX], for which the IC50 in data set [3] was 25.4 µM.
For `O=C(CN1CCN(c2cc3c(cc2F)c(=O)c(C(=O)O)cn3C2CC2)CC1)N/N=C/c1ccccc1O` [IV], the IC50 in [4] is 0.75 µM.
As for `O=C(/C=C/c1ccc(Cl)cc1)c1c[nH]c(=S)s1` [VII], the IC50 in the data set with OVCAR-3 was 2.82 µM; in the data set on CCRF-CEM it was 2.88 µM; in the data set on MDA-MB-468, 2.51 µM; in the data set on RPMI-8226, 2.4 µM.
As to `COc1cc(/C=C/C(=O)c2ccc(NC(=O)N3CCN(c4cc5c(cc4F)c(=O)c(C(=O)O)cn5C4CC4)CC3)cc2)cc(OC)c1OC` [VI], the Selectivity ratio with leukemia subpanel was 6.71.
For the molecule `COc1cc(/C=C/C(=O)c2sc(SCC(=O)Nc3nc(-c4ccccc4)cs3)nc2C)cc(OC)c1OC` [V], the IC50 is 6 µM in the data set on MDAMB-231; 4 µM in the data set with MCF-7; 2.69 µM with tubulin polymerization; 7 µM with PC-3; 8 µM in the data set on HCT-116.

(Values after publication PMC12655637, “Design, Synthesis, and Mechanistic Study of Novel Ciprofloxacin/Thiazole Chalcone Hybrids as Potential Anticancer Agents” (Pharmaceuticals, 2025).)
